The series is described as follows: log P determination (acidic). It counts as physicochemical.

Each structure is given as a SMILES string.

What is called logP is the decadic logarithm of the partition coefficient of the neutral form, usually between octanol and water. A high value points to a more lipophilic compound.

As to `CNC(=S)N1CCO/C1=N\[C@@H](C)c1ccccc1F` [compound 3, (2Z)-2-{[(1S)-1-(2-fluorophenyl)ethyl]imino}-N-methyl-1,3-oxazolidine-3-carbothioamide], the logP worked out at 3.18.
